Measurements: patent US20220226473A1, “Nucleic acid nanocarrier drug and preparation method thereof, pharmaceutical composition and application thereof” (BAI YAO ZHI DA (BEIJING) NANOBIO TECHNOLOGY CO., LTD., priority 2018, published 2022)
Like-named read-outs stand apart in the source and are kept apart here. {Biotin} = biotin (Bio) of the a-strand

How the values were obtained:
BXPC3 cells = test: Cytotoxicity of RNAh-Bio-670-gemcitabine nanoparticles; format: cell-based; conditions: Homo sapiens, BXPC-3
From the text: I. Samples to be tested: small molecular drug gemcitabine and […] nanoparticles

SGC-7901 cells = test: Cytotoxicity of DNAh-Biotin-EGFRapt-Cy5-THP nanoparticles; format: cell-based, human
Procedure: (§1) 2) adjusting the cell density to 2.22×10^4/mL with a growth medium:
(§2) 3) planting 90 μL/well of cell suspension into the 96-well plate, herein the number of cells per well in the plate is 2000;
(§3) 4) placing the planted cell plate in the incubator at 37 DEG C. and incubating overnight;
(§4) 5) performing 3.16-fold gradient dilution on the compound at 9 concentration points;
(§5) 6) taking out the cell culture plate, and adding 10 μL/well of 10× concentration drug working solution to the corresponding wells of the cell culture plate, herein three replicate holes are made for each concentration, and the final drug action concentration is shown in the table below.
(§6) 7) placing the cell culture plate in the incubator and continuously incubating for 96 hours;
(§7) 8) placing the CellTiter 96@D AQueous One Solution reagent at the room temperature and thawing for 90 minutes or thawing in a water bath at 37 DEG C., and then equilibrating at the room temperature for 30 minutes;
(§8) 9) adding 20 μL/well of the CellTiter 96® AQueous One Solution reagent to the cell culture plate;
(§9) 10) placing the cell culture plate in the incubator at 37 DEG C. and continuously incubating for 3 hours;
(§10) 11) using the microplate reader to read a OD490 value of each well in the cell plate; and
(§11) 12) data processing and analysis.
(§12) GraphPad Prism5.0 software is used to process data graphically. In order to calculate the IC50, […] non-linear regression analysis is performed on the data to match a suitable dosage-effect curve. A calculation formula of the cell survival rate is as follows, the IC50 may be automatically calculated in the GraphPad Prism 5.0.
(§13) Cell survival rate (%)=(ODtest well−ODblank control)/(ODnegative control−ODblank control)×100%.
(§14) II. Experiment Device and Method Same as (II)

SKOV3 cells = test: as above; format: cell-based, human
Procedure: as §1, §2, §3, §4, §5, §6, §7, §8, §9, §10, §11, §12, §13, §14

HL60 cells = test: Cytotoxicity of RNAh-Bio-670-EPB nanoparticles, CellTiter-Glo; format: cell-based; conditions: HL60, treatment time 72 h, CellTiter-Glo; read-out: IC50
Procedure: Preparing a freshly prepared reagent into a corresponding volume container, and adding PBS to be quantified to 10 μM.
Cells are cultured at 37 DEG C. and 5% CO2 in a corresponding basal medium in which 10% FBS and 1% PS are respectively added. The cell density used in the experiment is above 80%. The cells are collected, and centrifuged at 1000 rpm for 4 minutes, the medium is resuspended, the cell concentration is adjusted, and it is added to the 96-well plate in a volume of 3000 cells per 50 μL, and each group has 3 replicate wells.
After 24 hours, the compound solution is transferred to each well by 50 μL/well.
The above cells after administration are cultured for 72 hours under a condition of 37 DEG C and 5% CO2.
The well plate is brought to a room temperature in advance and stands for 30 minutes, 100 μL of a CellTiter-Glo® reagent is added to each well of the well plate and mixed for 2 minutes on a shaker to promote cell lysis. The Perkin Elmer Envision 2104 Multilabel Reader is used to read values and the values are recorded.
The acquired experiment data is analyzed and processed by using excel software, and GraphPad Prism 5 software is used for curve fitting analysis.

MOLT4 cells = test: Cytotoxicity of RNAh-Bio-670-MTX nanoparticles, CTG; format: cell-based, human; conditions: 200 nM
Procedure: 1) Using the RPMI1640+10% FBS+1% PS medium to culture the MOLT4 cells at 37 DEG C. and 5% CO2.
2) Collecting the cells, centrifuging at 800 rpm for 5 minutes, resuspending the medium, adjusting the cell concentration, and adding to the 96-we plate in a volume of 5000 cells per 90 μL. […]
4) After being cultured for 72 hours, adding 100 μL of the CTG reagent to each well, shaking for 2 minutes, and standing at the room temperature for 10 minutes, herein a whole process is protected from light.
5) Finally using Soft Max Pro5 software to read.

SH-SY5Y cells = test: Cytotoxicity of RNAh-Biotin-quasar670-aspirin nanoparticles, CTG kit; format: cell-based; conditions: Homo sapiens, SH-SY5Y
Procedure: Experiment purpose: an effect of a compound on proliferation of a target tumor cell line is researched.
Experiment design: the compound is diluted in 8 concentration gradients and sequentially added to the target tumor cell line and incubated for 72 hours, the CTG kit is used to detect the effect of the compound on the cell proliferation.

[1] = Particle size measurement (DLS hydrodynamic size); format: physicochemical; conditions: DLS hydrodynamic size
[2] = TM value detection by solubility curve method (SYBR Green I); format: physicochemical; conditions: DNA nanoparticles
Procedure: A solubility curve method is used to detect TM values of the 7 groups of the extension fragment deformation+core short-sequence RNA nanoparticles, and the samples are consistent with the potential samples.
(1) After the sample is diluted with ultrapure water, 5 μg of the diluted sample is mixed with 2 μL of SYBR Green I dye (diluted by 1:200), a final volume is 20 μL, and the dilution concentration is as follows:
(2) It is incubated for 30 min in the dark at a room temperature; and
(3) On-machine detection is performed, a program is set to start at 20 DEG C., the temperature rises per second from 0.1 DEG C. to 95 DEG C., and reading is performed every 5 s.
Due to the particularity of the RNA samples, a temperature corresponding to ½ RFUmax in a range of 20 to 90 DEG C. is used as a sample Tm value in this test.
A solubility curve method is used to detect TM values of the 7 groups of the extension fragment deformation+core short-sequence DNA nanoparticles, and the samples are consistent with the potential samples.
(1) After the sample is diluted with ultrapure water, 5 μg of the diluted sample is mixed with 2 μL of SYBR Green I dye (diluted by 1:200). a final volume is 20 μL, and the dilution concentration is as follows: […]

[3] = Electric potential (zeta potential) measurement of self-assembly products; format: physicochemical; conditions: result over 3 detections, at 25 DEG C.
Procedure, shortened: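 Self-assembled RNA or DNA nanoparticles dissolved in ultrapure water; zeta potential measured manually at 25 °C.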

HepG2 cells [4] = test: CCK8 toxicity of DNA nanoparticles and carrier drugs; format: cell-based; conditions: HepG2, CCK8, 72 hours
Procedure: A CCK8 method is used to detect the toxicity of DNA nanoparticles and carrier drugs to HepG2.
2. A sample to be tested is diluted according to the following table and added: the original culture medium is removed and 100 μL of a culture medium of the sample to be tested with the different concentration is added, and there are 3 replicate wells in each group.
In the present embodiment, the loaded drug and the blank carrier are firstly prepared into 100 μM of stock solution using the PBS, and then diluted with the complete culture medium (biotin-free DMEM). The original drug doxorubicin is firstly prepared into 100 NM of stock solution by using the DMSO, and then diluted with the complete culture medium (biotin-free DMEM). The DMSO is directly diluted with the complete medium (biotin-free DMEM).
3. After the sample to be tested is added, the 96-well plate is placed in an incubator under 37 DEG C. and 5% CO2 and incubated for 72 hours.
4. A kit is taken out and melted at a room temperature, 10 μL of CCK-8 solution is added to each wall, or the CCK8 solution is nixed with the culture medium at a ratio of 1:9, and then added to the well in an amount of 100 μL/well.
5. It is continuously incubated in the cell incubator for 4 hours, and a length of time depends on experimental conditions such as a cell type and a el density.
6. A microplate reader is used to measure an absorbance at 450 nm.
7. Calculation: cell viability (%)=(OD experimental group−OD blank group)[…]/(OD control group−OD blank group), IC50 is calculated by GraphPad Prism 5.0.

[5] = Drug loading rate of nucleic acid nanoparticles (chemical loading, absorbance standard curve); format: physicochemical; set-up: unit not given here
From the text: According to the chemical loading method (unless otherwise specified, the method is the same as that of Embodiment 5) of Embodiment 5, the RNA nanoparticles formed by the self-assembly of the previous R-15, R-16, R-17, R-18, R-19, R-20 and R-21 in Embodiment 9, and the DNA nanoparticles formed by the self-assembly of the D-8, D-9, D-10, D-11, D-12, D-13 and D-14 in Embodiment 10 are respectively used as doxorubicin loading carriers, doxorubicin loading rates measured are respectively as follows:
According to the chemical loading method (unless otherwise specified, the method is the same as that of Embodiment 5) of Embodiment 5, the DNA nanoparticles formed by the self-assembly of the previous D-10 and D-14 in Embodiment 10 are used as a daunorubicin loading carrier.
According to a chemical loading method of Embodiment 5 (unless otherwise specified, the method is the same as that of Embodiment 5, the same molar number of the epirubicin is used as a loading amount), nucleic acid nanoparticles (a molecular weight is 29550, it is similar to the RNA nanoparticles in Embodiment 1, and a difference is that a fluorescent label on a c-strand is Cy5) are used as a carrier, and respectively loaded with: epirubicin, methotrexate, pirarubicin, daunorubicin, […], 10-hydroxycamptothecin, aspirin and gemcitabine.
Herein, when a standard curve is drawn, the absorbance of the above drugs on the microplate reader is measured respectively. The absorbance of the epirubicin, methotrexate, pirarubicin, daunorubicin, […], 10-hydroxycamptothecin, aspirin and gemcitabine is respectively detected at the following wavelengths: 492 nm, 303 nm, 492 nm, 492 nm, 265 nm, 384 nm, 225 nm and 268 nm. The standard curves obtained correspondingly are respectively shown in FIG. 48a, FIG. 49, FIG. 50sa, FIG. 51, FIG. 52, FIG. 53, FIG. 54a and FIG. 55. […]

HepG2 cells [6] = test: Cell binding of DNA nanoparticles and carrier drugs by FACS; format: cell-based; conditions: incubated at 37 DEG C. for 2 h, flow cytometry
Procedure: 1. A cell state is adjusted to a logarithmic growth phase, the medium is changed into a medium without biotin and folic acid, and it is incubated overnight in an incubator at 37 DEG C.
2. After incubation, cell suspension is trypsinized and collected, and centrifuged at 1000 rpm for 5 min, after the concentration is adjusted, a 2×10^6-5×10^6 cell/EP tube is taken and washed twice with 1 mL/tube of 1% BSA-PBS, and cells at the bottom of the tube is observed to prevent them from being absorbed.
3. A substance to be tested is dissolved, and the substance to be tested is diluted to a use concentration.
4. Cell supernatant is absorbed, 100 μL of a corresponding sample is added to each tube in order, light is avoided, and it is incubated at 37 DEG C. for 2 h.
5. It is washed twice with 1% BSA-PBS; and centrifuged at 1000 rpm for 5 min.
6. Finally, it is precipitated with 300 μL of PBS cell resuspension, and flow Cytometric on-machine detection (the blank carrier used in the present embodiment is labeled by Quasar670, and the doxorubicin in the carrier drug has its own fluorescence, so the detection may be performed through FL4-APC and FL2-PE respectively) is performed.

Nc1ccn([C@@H]2O[C@H](CO)[C@@H](O)C2(F)F)c(=O)n1 [gemcitabine]
IC50 (BXPC3 cells; BXPC3, 72 h, read-out: IC50): 0.0342 µM
inhibition at 5 µM (BXPC3 cells; administration concentration 5 μM, read-out: cell inhibition rate, BxPC3 cells): 83%
IC50 (BXPC3 cells; read-out: IC50, BxPC3 cell proliferation): 0.0341 µM

COc1cccc2c1C(=O)c1c(O)c3c(c(O)c1C2=O)C[C@@](O)(C(=O)CO)C[C@@H]3O[C@H]1C[C@H](N)[C@H](O[C@@H]2CCCCO2)[C@H](C)O1 [THP, pirarubicin]
toxicity to SGC-7901 cells (SGC-7901 cells): toxic to the SGC-7901 cells
IC50 (SGC-7901 cells; Homo sapiens, SGC-7901): 0.0274 µM
toxicity to SKOV3 cells (SKOV3 cells): toxic to the SKOV3 cells
IC50 (SKOV3 cells; Homo sapiens, SK-OV-3, SKOV3): 0.0237 µM

COc1cccc2c1C(=O)c1c(O)c3c(c(O)c1C2=O)C[C@@](O)(C(=O)CO)C[C@@H]3O[C@H]1C[C@H](N)[C@@H](O)[C@H](C)O1 [Epirubicin (EPB)]
IC50 (HL60 cells): 0.301 µM

CN(Cc1cnc2nc(N)nc(N)c2n1)c1ccc(C(=O)N[C@@H](CCC(=O)O)C(=O)O)cc1 [MTX, methotrexate]
effect on proliferation of MOLT4 cells (MOLT4 cells; 72 hours): significant inhibitory effect on the proliferation of the MOLT4 cells

CN(Cc1cnc2nc(N)nc(N)c2n1)c1ccc(C(=O)N[C@@H](CCC(=O)O)C(=O)O)cc1 [Methotrexate (MTX)]
cell survival rate (%) (MOLT4 cells; MOLT-4, 72 h): 2.88%

CC(=O)Oc1ccccc1C(=O)O [aspirin]
IC50 (SH-SY5Y cells; 72 hours, read-out: IC50, SH-SY5Y cell proliferation): 1430 µM
inhibition at 5 µM (SH-SY5Y cells; administration concentration 5 μM, 72 hours, read-out: cell inhibition rate, SH-SY5Y cells): 17.7%
IC50 (SH-SY5Y cells; 72 h, CTG kit, read-out: IC50): 1430 µM

B1: D-14: extension fragment deformation+core short-sequence DNA nanoparticle, SEQ ID NO: 159-161, 3′ biotin (nucleic acid)
chain 1: GCGGCGAGCGGCGACGAGCGTTGCGGCCGGAGGCCGG
chain 2: CCGGCCTCCGGCCGCTTCGGCGCCAGCCGCC
chain 3: GGCGGCAGGCGCCCATAGCCGTCGCCGCTCGCCGC
modifications: chain 1: DNA, 3' {Biotin}, backbone not given here; chain 2: DNA, backbone not given here; chain 3: DNA, backbone not given here; three-strand DNA nanoparticle carrier
Mean particle size (nm) [1]: 6.896 nm
TM value (° C.) [2]: 49.2 °C
Potential ZP, Experiment result [3]: −28.73 mV
IC50 (HepG2 cells [4]): > 1 µM
daunorubicin loading rate ([5]; absorbance at 492 nm): 25.1
doxorubicin loading rate ([5]; chemical loading method of Embodiment 5): 32
Positive rate (HepG2 cells [6]; HepG2, 1 μM): 97.4%
Positive rate (HepG2 cells [6]; HepG2, 2 μM): 98.3%
